From patent US20030212014A1 (priority 2000, published 2003) come the findings set out here.

This assay deals with HUVEC. Description: Apoptosis in HUVEC incubated with 2-bromopalmitate. It is filed as cell-based, human. To be noted: inhibition of free fatty acid oxidation. The protocol: To test this notion, experiments were performed in HUVEC incubated with 2-bromopalmitate, an inhibitor of CPT1 which inhibits free fatty oxidation, or a higher concentration of free fatty acids (0.5 mM vs. 0.1 mM palmitate).

For the molecule `CCCCCCCCCCCCCCC(Br)C(=O)O` (stereo not shown) [2-bromopalmitate], the apoptosis result is on record as “promotes apoptosis”.
